Reference: ChEMBL document CHEMBL1150843, “Hortein, a new natural product from the fungus Hortaea werneckii associated with the sponge Aplysina aerophoba” (J Nat Prod, 2001)
Activity calls are given as the source filed them.

How the values were obtained:
Format in all cases: functional, organism-based
[1] = tested on: Escherichia coli; assay: Antibacterial activity against Escherichia coli HB101 after 4 days by serial dilution test
[2] = tested on: Spodoptera littoralis; assay: Insecticidal activity against Spodoptera littoralis larvae administered through artificial diet by chronic feeding assay
[3] = tested on: Candida albicans; assay: Antifungal activity against Candida albicans after 4 days by serial dilution test
[4] = tested on: Staphylococcus aureus; assay: Antibacterial activity against Staphylococcus aureus ATCC 25923 after 4 days by serial dilution test
[5] = tested on: Bacillus subtilis; assay: Antibacterial activity against Bacillus subtilis 168 after 4 days by serial dilution test; conditions: subsp. subtilis str. 168

Measured: Activity

O=C1CCC(=O)c2c1c(O)c(O)c1c2-c2ccc(O)c3c(O)ccc-1c23
inactive: all assays above
